Experimental data: patent publication US6391827B1, “Pyrrolic compounds having a high herbicidal activity and their agronomic use” (Isagro Ricerca S.r.l., priority 1999, dated 2002)

What was measured:
Assay type in all cases: in vivo
Set-up in all cases: key: 0=0-20% of damage; 1=21-40%; 2=41-60%; 3=61-80%; 4=81-95%; 5=death of the plant treated
Settings in all cases: 150 g/hectare, evaluated 21 days after treatment, damage vs blank
[1] = test system: Abutilon theofrasti (AT); experiment: Herbicidal activity in post-emergence, Abutilon theofrasti
Protocol: (§1) The herbicidal activity of the compounds of the invention was evaluated with respect to both monocotyledon and dicotyledon weeds, in post- and pre-emergence treatment.
(§2) The evaluation tests were carried out according to the following operative procedures.
(§3) Vases (diameter over 10 cm, height 10 cm) containing sandy medium were prepared. One of the following weeds was planted in each of them: Abutilon theofrasti (AT), Amarantus retraflexus (AR), Chenopodium album (CA), Convolvulus sepium (CS), Portulaca oleracea (PO), Solanum nigrum (SN), Ipomea purpurea (IP).
(§4) Water was added to each vase in a suitable quantity for a good germination of the seeds. The vases were divided into two groups, each group containing at least 5 vases for each weed.
(§5) The first group was not treated with herbicide and was used as a comparison (blank).
(§6) The second group of vases was treated fifteen days after sowing (i.e. when the small weed plants, depending on the species, were 10-15 cm high) with a hydroacetone dispersion at 20% by volume of acetone of the product to be evaluated (herbicidal activity in post-emergence). All the vases were kept under observation in a conditioned environment under the following environmental conditions:
(§7) light intensity: 10000 lux
(§8) Every two days, the vases were uniformly watered to ensure a sufficient degree of humidity for a good development of the plants.
(§9) 21 days after treatment, the herbicidal activity was evaluated on the basis of the following scale of values referring to the percentage of damage measured on the treated plants with respect to those not treated (blank): […]

[2] = test system: Amarantus retraflexus (AR); experiment: Herbicidal activity in post-emergence, Amarantus retraflexus
Protocol: as §1, §2, §3, §4, §5, §6, §7, §8, §9

[3] = test system: Chenopodium album (CA); experiment: Herbicidal activity in post-emergence, Chenopodium album
Protocol: as §1, §2, §3, §4, §5, §6, §7, §8, §9

[4] = test system: Convolvulus sepium (CS); experiment: Herbicidal activity in post-emergence, Convolvulus sepium
Protocol: as §1, §2, §3, §4, §5, §6, §7, §8, §9

[5] = test system: Portulaca oleracea (PO); experiment: Herbicidal activity in post-emergence, Portulaca oleracea
Protocol: as §1, §2, §3, §4, §5, §6, §7, §8, §9

[6] = test system: Solanum nigrum (SN); experiment: Herbicidal activity in post-emergence, Solanum nigrum
Protocol: as §1, §2, §3, §4, §5, §6, §7, §8, §9

[7] = test system: Ipomea purpurea (IP); experiment: Herbicidal activity in post-emergence, Ipomea purpurea
Protocol: as §1, §2, §3, §4, §5, §6, §7, §8, §9

C#CCOc1cc(-c2c(Cl)c(C(F)(F)F)n(C)c2Cl)c(F)cc1Cl [Compound 14, 3-[4-chloro-2-fluoro-5-(2-propinyloxy)phenyl]-2,4-dichloro-1-methyl-5-trifluoromethyl pyrrole]
5: Herbicidal activity in post-emerqence, AT [1] | Herbicidal activity in post-emerqence, AR [2] | Herbicidal activity in post-emerqence, CA [3] | Herbicidal activity in post-emerqence, CS [4] | Herbicidal activity in post-emerqence, PO [5] | Herbicidal activity in post-emerqence, SN [6] | Herbicidal activity in post-emerqence, IP [7]

CCOC(=O)COc1cc(-c2c(Br)c(C(F)(F)F)n(C)c2Br)c(F)cc1Cl [Compound 4, ethyl 2-chloro-5-(2,4-dibromo-1-methyl-5-trifluoromethylpyrrol-3-yl)-4-fluorophenoxy acetate]
5: Herbicidal activity in post-emerqence, AT [1] | Herbicidal activity in post-emerqence, AR [2] | Herbicidal activity in post-emerqence, CA [3] | Herbicidal activity in post-emerqence, CS [4] | Herbicidal activity in post-emerqence, PO [5] | Herbicidal activity in post-emerqence, SN [6] | Herbicidal activity in post-emerqence, IP [7]

CCOC(=O)COc1cc(-c2c(Br)c(C(F)(F)F)n(C)c2Cl)c(F)cc1Cl [Compound 18, ethyl-5-(4-bromo-2-chloro-1-methyl-5-trifluoromethylpyrrol-3-yl)-2-chloro-4-fluorophenoxyacetate]
5: Herbicidal activity in post-emerqence, AT [1] | Herbicidal activity in post-emerqence, AR [2] | Herbicidal activity in post-emerqence, CA [3] | Herbicidal activity in post-emerqence, CS [4] | Herbicidal activity in post-emerqence, PO [5] | Herbicidal activity in post-emerqence, SN [6] | Herbicidal activity in post-emerqence, IP [7]

C#CCOc1cc(-c2c(Br)c(C(F)(F)F)n(C)c2Br)c(F)cc1Cl [Compound 5, 3-[4-chloro-2-fluoro-5-(2-propinyloxy)phenyl]-2,4-dibromo-1-methyl-5-trifluoromethylpyrrole]
5: Herbicidal activity in post-emerqence, AT [1] | Herbicidal activity in post-emerqence, AR [2] | Herbicidal activity in post-emerqence, CA [3] | Herbicidal activity in post-emerqence, CS [4] | Herbicidal activity in post-emerqence, PO [5] | Herbicidal activity in post-emerqence, SN [6] | Herbicidal activity in post-emerqence, IP [7]

CCOC(=O)COc1cc(-c2c(Cl)c(C(F)(F)F)n(C)c2Cl)c(F)cc1Cl [Compound 15, ethyl [2-chloro-5-(2,4-dichloro-1-methyl-5-trifluoro methylpyrrol-3-yl)-4-fluorophenoxy]acetate]
5: Herbicidal activity in post-emerqence, AT [1] | Herbicidal activity in post-emerqence, AR [2] | Herbicidal activity in post-emerqence, CA [3] | Herbicidal activity in post-emerqence, CS [4] | Herbicidal activity in post-emerqence, PO [5] | Herbicidal activity in post-emerqence, SN [6] | Herbicidal activity in post-emerqence, IP [7]

C#CCOc1cc(-c2c(Br)c(C(F)(F)F)n(C)c2Cl)c(F)cc1Cl [Compound 17, 4-bromo-3-[4-chloro-2-fluoro-5-(2-propinyloxy)phenyl]-2-chloro-1-methyl-5-trifluoromethyl pyrrole]
5: Herbicidal activity in post-emerqence, AT [1] | Herbicidal activity in post-emerqence, AR [2] | Herbicidal activity in post-emerqence, CA [3] | Herbicidal activity in post-emerqence, CS [4] | Herbicidal activity in post-emerqence, PO [5] | Herbicidal activity in post-emerqence, SN [6] | Herbicidal activity in post-emerqence, IP [7]
